Data reported in ChEMBL document CHEMBL1130608, “Synthesis and anticancer evaluation of certain gamma-aryloxymethyl-alpha-methylene-gamma-phenyl-gamma-butyrolactones” (1998).

Tested on: ACHN
Experiment: In vitro anticancer activity against ACHN renal cancer cell line
Assay type: functional
Conditions: Homo sapiens

Row | GI50 | Compound
1 | 1510 nM | C=C1CC(COc2ccc3cccc(O)c3n2)(c2ccccc2)OC1=O (stereo not given)
2 | 1580 nM | C=C1CC(COc2cccc3ccc(C)nc23)(c2ccccc2)OC1=O (stereo not given)

Tested on: SNB-19
Experiment: In vitro anticancer activity against SNB-19 CNS cancer cell line; Least sensitive cell
Assay type: functional
Conditions: Homo sapiens

Row | Compound | GI50
3 | C=C1CC(COc2cccc3ccc(C)nc23)(c2ccccc2)OC1=O (stereo not given) | 17000 nM

Tested on: PC-3
Experiment: In vitro anticancer activity against PC-3 prostate cancer cell line
Assay type: functional
Conditions: Homo sapiens

Row | GI50 | Compound
4 | 3090 nM | C=C1CC(COc2ccc3cccc(O)c3n2)(c2ccccc2)OC1=O (stereo not given)
5 | 2950 nM | C=C1CC(COc2cccc3ccc(C)nc23)(c2ccccc2)OC1=O (stereo not given)

Tested on: RPMI-8226
Experiment: In vitro anticancer activity against RPMI-8226 Leukemia cancer cell line; Most sensitive cell
Assay type: functional
Conditions: Homo sapiens

Row | GI50 | Compound
6 | 14.1 nM | C=C1CC(COc2ccc3cccc(O)c3n2)(c2ccccc2)OC1=O (stereo not given)
7 | 10 nM | C=C1CC(COc2cccc3ccc(C)nc23)(c2ccccc2)OC1=O (stereo not given)

Tested on: U-251
Experiment: In vitro anticancer activity against U-251 CNS cancer cell line
Assay type: functional
Conditions: Homo sapiens

Row | GI50 | Compound
8 | 1820 nM | C=C1CC(COc2ccc3cccc(O)c3n2)(c2ccccc2)OC1=O (stereo not given)
9 | 1780 nM | C=C1CC(COc2cccc3ccc(C)nc23)(c2ccccc2)OC1=O (stereo not given)

Tested on: COLO 205
Experiment: In vitro anticancer activity against COLO 205 colon cancer cell line
Assay type: functional
Conditions: Homo sapiens

Row | GI50 | Compound
10 | 1780 nM | C=C1CC(COc2ccc3cccc(O)c3n2)(c2ccccc2)OC1=O (stereo not given)
11 | 2240 nM | C=C1CC(COc2cccc3ccc(C)nc23)(c2ccccc2)OC1=O (stereo not given)

Tested on: Panel leukemia (Carcinoma cell lines)
Experiment: Compound was evaluated for in vitro anticancer activity against leukemia cell lines
Assay type: functional, cell-based
Conditions: not given

Row | GI50 | Compound
12 | 4470 nM | CISPLATIN
13 | 107000 nM | CARBOPLATIN

Tested on: Hs-578T
Experiment: In vitro anticancer activity against Hs 578.T breast cancer cell line
Assay type: functional
Conditions: Homo sapiens

Row | Compound | GI50
14 | C=C1CC(COc2ccc3cccc(O)c3n2)(c2ccccc2)OC1=O (stereo not given) | 2290 nM
15 | C=C1CC(COc2cccc3ccc(C)nc23)(c2ccccc2)OC1=O (stereo not given) | 2000 nM

Tested on: DU-145
Experiment: In vitro anticancer activity against DU-145 prostate cancer cell line
Assay type: functional
Conditions: Homo sapiens

Row | GI50 | Compound
16 | 11200 nM | C=C1CC(COc2ccc3cccc(O)c3n2)(c2ccccc2)OC1=O (stereo not given)
17 | 5620 nM | C=C1CC(COc2cccc3ccc(C)nc23)(c2ccccc2)OC1=O (stereo not given)

Tested on: SR
Experiment: In vitro anticancer activity against SR Leukemia cancer cell line
Assay type: functional
Conditions: Homo sapiens

Row | Compound | GI50
18 | C=C1CC(COc2ccc3cccc(O)c3n2)(c2ccccc2)OC1=O (stereo not given) | 724 nM
19 | C=C1CC(COc2cccc3ccc(C)nc23)(c2ccccc2)OC1=O (stereo not given) | 776 nM

Tested on: SNB-19
Experiment: In vitro anticancer activity against SNB-19 CNS cancer cell line; Leaset sensitive cell
Assay type: functional
Conditions: Homo sapiens

Row | Compound | GI50
20 | C=C1CC(COc2ccc3cccc(O)c3n2)(c2ccccc2)OC1=O (stereo not given) | 14500 nM

Tested on: Malme-3M
Experiment: In vitro anticancer activity against MALME-3M melanoma cancer cell line
Assay type: functional
Conditions: Homo sapiens

Row | Compound | GI50
21 | C=C1CC(COc2ccc3cccc(O)c3n2)(c2ccccc2)OC1=O (stereo not given) | 1700 nM
22 | C=C1CC(COc2cccc3ccc(C)nc23)(c2ccccc2)OC1=O (stereo not given) | 1700 nM

Tested on: TK-10
Experiment: In vitro anticancer activity against TK-10 renal cancer cell line
Assay type: functional
Conditions: Homo sapiens

Row | Compound | GI50
23 | C=C1CC(COc2ccc3cccc(O)c3n2)(c2ccccc2)OC1=O (stereo not given) | 7080 nM
24 | C=C1CC(COc2cccc3ccc(C)nc23)(c2ccccc2)OC1=O (stereo not given) | 2090 nM

Tested on: IGROV-1
Experiment: In vitro anticancer activity against IGROV1 ovarian cancer cell line
Assay type: functional
Conditions: Homo sapiens

Row | Compound | GI50
25 | C=C1CC(COc2ccc3cccc(O)c3n2)(c2ccccc2)OC1=O (stereo not given) | 1660 nM
26 | C=C1CC(COc2cccc3ccc(C)nc23)(c2ccccc2)OC1=O (stereo not given) | 1780 nM

Tested on: SW-620
Experiment: In vitro anticancer activity against SW-620 colon cancer cell line
Assay type: functional
Conditions: Homo sapiens

Row | GI50 | Compound
27 | 1860 nM | C=C1CC(COc2ccc3cccc(O)c3n2)(c2ccccc2)OC1=O (stereo not given)
28 | 1480 nM | C=C1CC(COc2cccc3ccc(C)nc23)(c2ccccc2)OC1=O (stereo not given)

Tested on: LOX IMVI
Experiment: In vitro anticancer activity against LOX IMVI melanoma cancer cell line
Assay type: functional
Conditions: Homo sapiens

Row | Compound | GI50
29 | C=C1CC(COc2ccc3cccc(O)c3n2)(c2ccccc2)OC1=O (stereo not given) | 1290 nM
30 | C=C1CC(COc2cccc3ccc(C)nc23)(c2ccccc2)OC1=O (stereo not given) | 1450 nM

Tested on: NCI-H322M
Experiment: In vitro anticancer activity against NCI-H322M non-small cell lung cancer cell line
Assay type: functional
Conditions: Homo sapiens

Row | GI50 | Compound
31 | 8510 nM | C=C1CC(COc2ccc3cccc(O)c3n2)(c2ccccc2)OC1=O (stereo not given)
32 | 12000 nM | C=C1CC(COc2cccc3ccc(C)nc23)(c2ccccc2)OC1=O (stereo not given)

Tested on: HOP-62
Experiment: In vitro anticancer activity against HOP-62 non-smallcell lung cancer cell line
Assay type: functional
Conditions: Homo sapiens

Row | Compound | GI50
33 | C=C1CC(COc2ccc3cccc(O)c3n2)(c2ccccc2)OC1=O (stereo not given) | 2140 nM
34 | C=C1CC(COc2cccc3ccc(C)nc23)(c2ccccc2)OC1=O (stereo not given) | 3240 nM

Tested on: SK-OV-3
Experiment: In vitro anticancer activity against SK-OV-3 ovarian cancer cell line
Assay type: functional
Conditions: Homo sapiens

Row | GI50 | Compound
35 | 7080 nM | C=C1CC(COc2ccc3cccc(O)c3n2)(c2ccccc2)OC1=O (stereo not given)
36 | 6760 nM | C=C1CC(COc2cccc3ccc(C)nc23)(c2ccccc2)OC1=O (stereo not given)

Tested on: MDA-MB-435
Experiment: In vitro anticancer activity against MDA-MB-435 breast cancer cell line
Assay type: functional
Conditions: Homo sapiens

Row | GI50 | Compound
37 | 2000 nM | C=C1CC(COc2ccc3cccc(O)c3n2)(c2ccccc2)OC1=O (stereo not given)
38 | 3020 nM | C=C1CC(COc2cccc3ccc(C)nc23)(c2ccccc2)OC1=O (stereo not given)

Tested on: not listed separately
Experiment: Ratio of the least sensitive cell to the most sensitive cell
Assay type: functional
Conditions: not given

Row | Compound | Ratio
39 | C=C1CC(COc2ccc3cccc(O)c3n2)(c2ccccc2)OC1=O (stereo not given) | 3.01
40 | C=C1CC(COc2cccc3ccc(C)nc23)(c2ccccc2)OC1=O (stereo not given) | 3.23
